Results from the NIST ThermoML archive (doi:10.1016/j.jct.2017.12.020).

Key:
[1] = Liquid; for speed of sound: Frequency=2 MHz, Pulse-echo method; for mass density: Vibrating tube method
[2] = molar heat capacity at constant pressure; conditions: 101.33 kPa, Liquid, Small sample (50 mg) DSC

CCCCCCCCCCCC(=O)OC [methyl dodecanoate]
[1]
Conditions	mass density [kg/m3]	speed of sound [m/s]
293.15 K, 100 kPa	–	1351.3
293.15 K, 101.33 kPa	869.2	–
293.15 K, 10000 kPa	–	1400.9
293.15 K, 20000 kPa	–	1445.1
293.15 K, 30000 kPa	–	1486.4
293.15 K, 40000 kPa	–	1526.9
293.15 K, 50000 kPa	–	1563.8
293.15 K, 60000 kPa	–	1600
293.15 K, 70000 kPa	–	1628.6
293.15 K, 80000 kPa	–	1660.5
293.15 K, 90000 kPa	–	1690.9
303.15 K, 101.33 kPa	861.4	–
313.15 K, 100 kPa	–	1276.4
313.15 K, 101.33 kPa	853.8	–
313.15 K, 10000 kPa	–	1328
313.15 K, 20000 kPa	–	1375.3
313.15 K, 30000 kPa	–	1420
313.15 K, 40000 kPa	–	1461.6
313.15 K, 50000 kPa	–	1500.9
313.15 K, 60000 kPa	–	1537
313.15 K, 70000 kPa	–	1573.3
313.15 K, 80000 kPa	–	1607.4
313.15 K, 90000 kPa	–	1637.8
313.15 K, 100000 kPa	–	1671.1
313.15 K, 120000 kPa	–	1728.6
313.15 K, 140000 kPa	–	1784.4
323.15 K, 101.33 kPa	845.8	–
333.15 K, 100 kPa	–	1205.5
333.15 K, 101.33 kPa	837.9	–
333.15 K, 10000 kPa	–	1259.6
333.15 K, 20000 kPa	–	1311
333.15 K, 30000 kPa	–	1357.5
333.15 K, 40000 kPa	–	1401
333.15 K, 50000 kPa	–	1441.3
333.15 K, 60000 kPa	–	1480.9
333.15 K, 70000 kPa	–	1515.7
333.15 K, 80000 kPa	–	1550.8
333.15 K, 90000 kPa	–	1585.9
333.15 K, 100000 kPa	–	1621.9
333.15 K, 120000 kPa	–	1682
333.15 K, 140000 kPa	–	1739.2
333.15 K, 160000 kPa	–	1791.8
333.15 K, 180000 kPa	–	1843.5
333.15 K, 200000 kPa	–	1893.2
343.15 K, 101.33 kPa	830	–
353.15 K, 100 kPa	–	1133.5
353.15 K, 101.33 kPa	822.2	–
353.15 K, 10000 kPa	–	1192.2
353.15 K, 20000 kPa	–	1247.2
353.15 K, 30000 kPa	–	1295.9
353.15 K, 40000 kPa	–	1342.5
353.15 K, 50000 kPa	–	1386.1
353.15 K, 60000 kPa	–	1426.2
353.15 K, 70000 kPa	–	1463.8
353.15 K, 80000 kPa	–	1500.1
353.15 K, 90000 kPa	–	1534.8
353.15 K, 100000 kPa	–	1568.3
353.15 K, 120000 kPa	–	1632.8
353.15 K, 140000 kPa	–	1690.8
353.15 K, 160000 kPa	–	1744.4
353.15 K, 180000 kPa	–	1802.7
353.15 K, 200000 kPa	–	1851.2

viscosity [mPa·s], [1]
Conditions	293.15 K	313.15 K	333.15 K	353.15 K
101.33 kPa, Capillary tube (Ostwald / Ubbelohde) method	3.14	2.05	1.45	1.09
10000 kPa, quartz crystal resonator	3.53	2.3	1.61	1.21
20000 kPa, quartz crystal resonator	3.96	2.59	1.78	1.33
30000 kPa, quartz crystal resonator	4.4	2.85	1.98	1.48
40000 kPa, quartz crystal resonator	5	3.16	2.18	1.62
50000 kPa, quartz crystal resonator	5.64	3.5	2.39	1.76
60000 kPa, quartz crystal resonator	6.21	3.85	2.62	1.92
70000 kPa, quartz crystal resonator	6.79	4.22	2.82	2.08
80000 kPa, quartz crystal resonator	7.58	4.64	3.07	2.25
90000 kPa, quartz crystal resonator	–	5.06	3.36	2.46
100000 kPa, quartz crystal resonator	–	5.55	3.63	2.65
120000 kPa, quartz crystal resonator	–	6.67	4.26	3.09
140000 kPa, quartz crystal resonator	–	7.67	4.95	3.54
160000 kPa, quartz crystal resonator	–	–	5.75	4.06
180000 kPa, quartz crystal resonator	–	–	6.56	4.64
200000 kPa, quartz crystal resonator	–	–	7.56	5.34

[2]
Conditions	molar heat capacity at constant pressure [J/K/mol]
297.91 K	433.79
307.79 K	438.57
317.66 K	443.29
327.54 K	448.34
337.42 K	453.83
347.29 K	459.28
357.17 K	464.66
367.05 K	470.72
376.92 K	477.82
386.8 K	485.49

CCCCCCCCCCCC(=O)OCC [ethyl dodecanoate]
[1]
Conditions	mass density [kg/m3]	speed of sound [m/s]
293.15 K, 100 kPa	–	1339.9
293.15 K, 101.33 kPa	862.2	–
293.15 K, 10000 kPa	–	1390.8
293.15 K, 20000 kPa	–	1436.7
293.15 K, 30000 kPa	–	1479.3
293.15 K, 40000 kPa	–	1519
293.15 K, 50000 kPa	–	1555.9
293.15 K, 60000 kPa	–	1591.9
293.15 K, 70000 kPa	–	1626.2
293.15 K, 80000 kPa	–	1659.7
293.15 K, 90000 kPa	–	1690.9
293.15 K, 100000 kPa	–	1720.9
293.15 K, 120000 kPa	–	1778.5
303.15 K, 101.33 kPa	854.3	–
313.15 K, 100 kPa	–	1266.1
313.15 K, 101.33 kPa	846.5	–
313.15 K, 10000 kPa	–	1317.6
313.15 K, 20000 kPa	–	1365
313.15 K, 30000 kPa	–	1409.3
313.15 K, 40000 kPa	–	1452.1
313.15 K, 50000 kPa	–	1491.4
313.15 K, 60000 kPa	–	1529.2
313.15 K, 70000 kPa	–	1564.8
313.15 K, 80000 kPa	–	1600.2
313.15 K, 90000 kPa	–	1632.3
313.15 K, 100000 kPa	–	1663
313.15 K, 120000 kPa	–	1721.9
313.15 K, 140000 kPa	–	1777.9
313.15 K, 160000 kPa	–	1830.9
323.15 K, 101.33 kPa	838.8	–
333.15 K, 100 kPa	–	1194
333.15 K, 101.33 kPa	831.1	–
333.15 K, 10000 kPa	–	1250.3
333.15 K, 20000 kPa	–	1300.9
333.15 K, 30000 kPa	–	1348
333.15 K, 40000 kPa	–	1393.4
333.15 K, 50000 kPa	–	1434.3
333.15 K, 60000 kPa	–	1473.3
333.15 K, 70000 kPa	–	1509.8
333.15 K, 80000 kPa	–	1545.4
333.15 K, 90000 kPa	–	1578.6
333.15 K, 100000 kPa	–	1610.9
333.15 K, 120000 kPa	–	1674.1
333.15 K, 140000 kPa	–	1730.4
333.15 K, 160000 kPa	–	1782.7
333.15 K, 180000 kPa	–	1835.3
333.15 K, 200000 kPa	–	1883.8
343.15 K, 101.33 kPa	823.2	–
353.15 K, 100 kPa	–	1125.7
353.15 K, 101.33 kPa	815.2	–
353.15 K, 10000 kPa	–	1186
353.15 K, 20000 kPa	–	1240.6
353.15 K, 30000 kPa	–	1290.3
353.15 K, 40000 kPa	–	1337.1
353.15 K, 50000 kPa	–	1379.7
353.15 K, 60000 kPa	–	1419.8
353.15 K, 70000 kPa	–	1458.8
353.15 K, 80000 kPa	–	1496.2
353.15 K, 90000 kPa	–	1530.6
353.15 K, 100000 kPa	–	1564.4
353.15 K, 120000 kPa	–	1627
353.15 K, 140000 kPa	–	1685.1
353.15 K, 160000 kPa	–	1740.7
353.15 K, 180000 kPa	–	1793.6
353.15 K, 200000 kPa	–	1843.5

viscosity [mPa·s], [1]
Conditions	293.15 K	313.15 K	333.15 K	353.15 K
101.33 kPa, Capillary tube (Ostwald / Ubbelohde) method	3.35	2.19	1.55	1.16
10000 kPa, quartz crystal resonator	3.77	2.46	1.74	1.29
20000 kPa, quartz crystal resonator	4.28	2.75	1.91	1.44
30000 kPa, quartz crystal resonator	4.78	3.11	2.13	1.58
40000 kPa, quartz crystal resonator	5.39	3.37	2.33	1.73
50000 kPa, quartz crystal resonator	5.94	3.74	2.55	1.9
60000 kPa, quartz crystal resonator	6.65	4.11	2.82	2.05
70000 kPa, quartz crystal resonator	7.25	4.45	3.08	2.22
80000 kPa, quartz crystal resonator	8.13	4.92	3.29	2.4
90000 kPa, quartz crystal resonator	8.91	5.46	3.6	2.58
100000 kPa, quartz crystal resonator	9.76	5.96	3.94	2.78
120000 kPa, quartz crystal resonator	11.9	6.77	4.55	3.22
140000 kPa, quartz crystal resonator	–	8.06	5.27	3.68
160000 kPa, quartz crystal resonator	–	9.57	6.1	4.19
180000 kPa, quartz crystal resonator	–	–	6.98	4.76
200000 kPa, quartz crystal resonator	–	–	7.85	5.28

[2]
Conditions	molar heat capacity at constant pressure [J/K/mol]
297.91 K	459.03
307.79 K	464.37
317.66 K	469.8
327.54 K	475.42
337.42 K	481.45
347.29 K	487.46
357.17 K	493.28
367.05 K	499.88
376.92 K	507.07
386.8 K	515.39
